Results taken from ChEMBL document CHEMBL3045970, “Development of a New Acaricide, Fenpyroximate” (J Pestic Sci, 1995).

Experiment: Half life in diluvial and volcanic ash soils under upland laboratory conditions
Type: physicochemical

Cc1nn(C)c(Oc2ccccc2)c1/C=N/OCc1ccc(C(=O)OC(C)(C)C)cc1 [FENPYROXYMATE]
t1/2: 26.3 days
